Several values for one entry are separate records, joined by “and”; a condition that tells them apart may be missing. Identical values can stand only once. Activity calls are given as the source filed them.
Assays:
[1] = biological target: Intestinal-type alkaline phosphatase (Homo sapiens, UniProt P09923); experiment: inhibition of human intestinal alkaline phosphatase – biochemical, dose response (AID 488876); format: functional
[2] = biological target: T1, Alkaline phosphatase, tissue-nonspecific isozyme (Homo sapiens, UniProt P05186); experiment: TNAP enzyme inhibition by screening hits, dose response, selectivity assay for mouse IAP inhibitor project, biochemical, human TNAP, uHTS hits (AID 488906); format: functional
T1 sequence (P05186 whole entry): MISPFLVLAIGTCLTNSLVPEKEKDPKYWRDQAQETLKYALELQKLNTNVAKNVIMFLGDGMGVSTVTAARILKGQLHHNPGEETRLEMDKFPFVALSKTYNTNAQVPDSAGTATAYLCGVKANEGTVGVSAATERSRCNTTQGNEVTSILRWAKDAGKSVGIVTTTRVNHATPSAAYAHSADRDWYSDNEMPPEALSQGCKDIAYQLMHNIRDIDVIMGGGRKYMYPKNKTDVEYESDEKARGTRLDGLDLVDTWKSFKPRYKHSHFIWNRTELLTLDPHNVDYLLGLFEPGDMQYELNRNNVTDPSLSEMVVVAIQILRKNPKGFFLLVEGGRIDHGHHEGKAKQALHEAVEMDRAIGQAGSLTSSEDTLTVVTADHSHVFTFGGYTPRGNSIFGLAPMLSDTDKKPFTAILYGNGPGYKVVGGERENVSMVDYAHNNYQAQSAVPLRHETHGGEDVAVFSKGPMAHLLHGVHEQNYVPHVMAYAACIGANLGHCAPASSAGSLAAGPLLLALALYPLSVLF

[3] = biological target: Intestinal-type alkaline phosphatase (Mus musculus, UniProt P24822); experiment: PubChem AID 488785; format: functional
[4] = biological target: Sphingosine 1-phosphate receptor 1 (Homo sapiens, UniProt P21453); experiment: Fluorescence-based counterscreen assay for S1P4 agonists: Cell-based dose response high throughput screening assay to identify agonists of the Sphingosine 1-Phosphate Receptor 1 (S1P1). [Related pubchem assays (depositor defined):AID1509, AID1523, AID1801, AID463107, AID463118, AID463119, AID463122, AID463123, AID463129, AID463225, AID504400, AID504460]; format: functional
Sphingosine 1-phosphate receptor 1, sequence (P21453 whole entry): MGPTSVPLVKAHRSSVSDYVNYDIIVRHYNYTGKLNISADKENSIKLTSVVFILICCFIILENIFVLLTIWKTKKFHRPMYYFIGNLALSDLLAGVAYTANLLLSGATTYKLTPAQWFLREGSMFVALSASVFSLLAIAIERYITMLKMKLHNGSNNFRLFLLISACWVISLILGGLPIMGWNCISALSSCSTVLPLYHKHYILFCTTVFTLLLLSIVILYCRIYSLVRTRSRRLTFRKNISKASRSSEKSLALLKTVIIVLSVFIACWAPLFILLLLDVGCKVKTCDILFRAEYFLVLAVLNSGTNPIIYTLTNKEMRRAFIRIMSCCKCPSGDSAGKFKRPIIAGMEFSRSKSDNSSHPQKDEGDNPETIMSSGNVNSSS

[5] = biological target: Sphingosine 1-phosphate receptor 2 (Homo sapiens, UniProt O95136); experiment: Dose Response Cell Based Assay for Agonists of the S1P2 Receptor. [Related pubchem assays: 729, 736, 843 ]; format: functional
Sphingosine 1-phosphate receptor 2, sequence (O95136 whole entry): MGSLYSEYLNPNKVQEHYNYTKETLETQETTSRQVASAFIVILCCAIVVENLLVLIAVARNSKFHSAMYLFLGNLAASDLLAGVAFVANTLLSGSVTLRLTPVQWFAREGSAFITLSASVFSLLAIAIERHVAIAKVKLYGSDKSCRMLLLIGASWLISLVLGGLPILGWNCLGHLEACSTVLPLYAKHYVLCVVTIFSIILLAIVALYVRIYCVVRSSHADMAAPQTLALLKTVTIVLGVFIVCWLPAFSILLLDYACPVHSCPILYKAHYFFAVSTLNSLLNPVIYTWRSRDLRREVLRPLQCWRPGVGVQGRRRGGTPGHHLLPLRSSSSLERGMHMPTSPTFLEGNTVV

[6] = fluconazole-exposed Candida albicans growth modulators – fluorescence, retest, confirmation (AID 2467); format: functional, cell-based
[7] = biological target: Sphingosine 1-phosphate receptor 4 (Homo sapiens, UniProt O95977); experiment: Fluorescence dose response cell-based high throughput screening assay for agonists of the Sphingosine 1-Phosphate Receptor 4 (S1P4). [Related pubchem assays: 1509 (Primary screen.), 1523 (Confirmation screen in triplicates.)]; format: functional
[8] = NIH-3T3 fibroblast cytotoxicity, dose response, cytotoxicity control, cell-based, fluorescence, Alamar Blue, secondary assay (AID 2327); format: functional;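 further: NIH-3T3 mouse fibroblasts cultured with fluconazole at 8 µg/mL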
[9] = biological target: Tumor necrosis factor (Homo sapiens, UniProt P01375); experiment: analog potency on TNFa NF-kB signaling – cell-based, revised, SAR follow-up (AID 2337); format: functional
Tumor necrosis factor, sequence (P01375 whole entry, the tested form may be a part): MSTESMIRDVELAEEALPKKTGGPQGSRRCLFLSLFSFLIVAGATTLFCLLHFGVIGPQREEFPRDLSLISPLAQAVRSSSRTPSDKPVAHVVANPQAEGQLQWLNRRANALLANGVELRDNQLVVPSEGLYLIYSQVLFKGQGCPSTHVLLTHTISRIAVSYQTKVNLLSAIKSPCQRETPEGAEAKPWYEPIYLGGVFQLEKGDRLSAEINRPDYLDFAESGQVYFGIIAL

[10] = biological target: Nucleotide-binding oligomerization domain-containing protein 1 (Homo sapiens, UniProt Q9Y239); experiment: blockers of NOD1 pathway activity – revised, SAR follow-up (AID 2333); format: functional
Nucleotide-binding oligomerization domain-containing protein 1, sequence (Q9Y239 whole entry, the tested form may be a part): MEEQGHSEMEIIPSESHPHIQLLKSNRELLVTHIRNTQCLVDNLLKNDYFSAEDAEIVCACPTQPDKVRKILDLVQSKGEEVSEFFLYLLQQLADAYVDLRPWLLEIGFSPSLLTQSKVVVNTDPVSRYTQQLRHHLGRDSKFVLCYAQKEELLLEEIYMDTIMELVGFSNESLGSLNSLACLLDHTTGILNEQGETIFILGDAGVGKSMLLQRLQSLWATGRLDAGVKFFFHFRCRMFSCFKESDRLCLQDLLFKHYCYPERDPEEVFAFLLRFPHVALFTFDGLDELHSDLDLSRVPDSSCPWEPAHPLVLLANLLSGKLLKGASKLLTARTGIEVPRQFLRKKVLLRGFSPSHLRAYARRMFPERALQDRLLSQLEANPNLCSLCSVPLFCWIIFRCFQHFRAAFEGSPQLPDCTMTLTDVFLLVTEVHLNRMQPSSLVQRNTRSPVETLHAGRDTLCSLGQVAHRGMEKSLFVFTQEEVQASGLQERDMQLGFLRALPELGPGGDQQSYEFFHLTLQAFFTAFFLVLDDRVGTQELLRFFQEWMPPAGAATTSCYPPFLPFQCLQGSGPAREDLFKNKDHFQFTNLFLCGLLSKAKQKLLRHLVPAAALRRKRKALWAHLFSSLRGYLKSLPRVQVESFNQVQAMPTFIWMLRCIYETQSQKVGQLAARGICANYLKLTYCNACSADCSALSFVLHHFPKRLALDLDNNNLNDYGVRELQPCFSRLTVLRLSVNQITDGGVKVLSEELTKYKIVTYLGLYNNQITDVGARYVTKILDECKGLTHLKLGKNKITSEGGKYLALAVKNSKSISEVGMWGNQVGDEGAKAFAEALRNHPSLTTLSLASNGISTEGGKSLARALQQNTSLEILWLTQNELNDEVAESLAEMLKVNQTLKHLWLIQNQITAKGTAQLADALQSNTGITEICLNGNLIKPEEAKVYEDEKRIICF

[11] = tested on: HEK293; experiment: cells; settings: Homo sapiens;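 further: cells exposed to compound for 14 hours overnight before viability readout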
[12] = biological target: Lysine-specific demethylase 4A (Homo sapiens, UniProt O75164); experiment: inhibition of JMJD2A H3K9me3 demethylation – biochemical, DELFIA europium, cherry-picked samples, selectivity assay for GASC-1 inhibitor project, dose response (AID 488840)
[13] = viability loss of HPDE-C7K cells – cell-based, fluorescence, HTS, primary screen (AID 431); format: functional; settings: Homo sapiens
[14] = Intein inhibitors as potential Tuberculosis drugs, a cytotoxicity screen. [Related pubchem assays (depositor defined):AID2221, AID2223, AID434968, AID435010, AID449749, AID449750, AID489010]; format: functional
[15] = biological target: Photoreceptor-specific nuclear receptor (Homo sapiens, UniProt Q9Y5X4); format: functional;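 further: potency for compounds that break the NR2E3 corepressor complex and count as activators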
Photoreceptor-specific nuclear receptor, sequence (Q9Y5X4 whole entry): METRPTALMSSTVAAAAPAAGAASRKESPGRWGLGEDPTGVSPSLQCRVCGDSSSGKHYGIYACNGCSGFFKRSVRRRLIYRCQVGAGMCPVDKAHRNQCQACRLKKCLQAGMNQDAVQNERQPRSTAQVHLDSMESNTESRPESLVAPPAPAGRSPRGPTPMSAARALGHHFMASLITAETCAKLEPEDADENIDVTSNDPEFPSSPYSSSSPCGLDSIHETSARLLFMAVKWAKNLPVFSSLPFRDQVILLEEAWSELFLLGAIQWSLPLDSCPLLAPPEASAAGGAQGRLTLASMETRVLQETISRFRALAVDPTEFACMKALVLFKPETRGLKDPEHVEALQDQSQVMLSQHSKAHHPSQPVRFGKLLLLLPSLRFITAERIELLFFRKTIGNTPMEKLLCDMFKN

[16] = HPDE-C7 pancreatic duct cell viability loss – fluorescence, HTS (AID 430); format: functional, cell-based; settings: Homo sapiens
[17] = NIH3T3 cell viability loss – ATP luminescence, mouse fibroblasts, counter-screen, dose response (AID 2010); format: functional, cell-based;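 further: cells exposed to compound for about 90 hours before reading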
[18] = biological target: T2, Dual specificity protein phosphatase 3 (Homo sapiens, UniProt P51452); experiment: VHR1 phosphatase inhibitors, biochemical (AID 1878)
T2 sequence (P51452 whole entry): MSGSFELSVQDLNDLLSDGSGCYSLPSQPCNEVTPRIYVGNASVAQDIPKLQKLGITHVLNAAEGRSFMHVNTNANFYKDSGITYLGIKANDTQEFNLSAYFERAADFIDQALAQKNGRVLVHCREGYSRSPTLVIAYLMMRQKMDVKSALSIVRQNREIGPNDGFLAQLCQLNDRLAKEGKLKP

[19] = tested on: INS1; experiment: INS-1E survival protection against cytokine death – cell-based, luminescence, retest, dose response (AID 449756); format: functional; settings: Rattus norvegicus;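 further: cell death triggered by IL-1 beta plus TNF-alpha plus IFN-gamma mixture; protective hits raise ATP signal compared with cytokine alone wells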
[20] = Trypanosoma cruzi growth suppression in host cells – NIH3T3 host cells, beta-gal luminescence, confirmation (AID 2044); format: functional, cell-based;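 further: intracellular parasites grown in NIH/3T3 mouse fibroblasts as host cells; luminescent beta-galactosidase reporter signal from transgenic T. cruzi replicating inside host cells; inhibitors lower the luminescence signal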
[21] = biological target: Peroxisome proliferator-activated receptor gamma/Nuclear receptor corepressor 2 (Homo sapiens, UniProt P37231+Q9Y618); format: functional
[22] = biological target: Lysine-specific demethylase 4C (Homo sapiens, UniProt Q9H3R0); experiment: inhibition of JMJD2C H3K9me3 demethylation – biochemical, DELFIA europium, cherry-picked samples, dose response (AID 488835); format: functional
Lysine-specific demethylase 4C, sequence (Q9H3R0 whole entry): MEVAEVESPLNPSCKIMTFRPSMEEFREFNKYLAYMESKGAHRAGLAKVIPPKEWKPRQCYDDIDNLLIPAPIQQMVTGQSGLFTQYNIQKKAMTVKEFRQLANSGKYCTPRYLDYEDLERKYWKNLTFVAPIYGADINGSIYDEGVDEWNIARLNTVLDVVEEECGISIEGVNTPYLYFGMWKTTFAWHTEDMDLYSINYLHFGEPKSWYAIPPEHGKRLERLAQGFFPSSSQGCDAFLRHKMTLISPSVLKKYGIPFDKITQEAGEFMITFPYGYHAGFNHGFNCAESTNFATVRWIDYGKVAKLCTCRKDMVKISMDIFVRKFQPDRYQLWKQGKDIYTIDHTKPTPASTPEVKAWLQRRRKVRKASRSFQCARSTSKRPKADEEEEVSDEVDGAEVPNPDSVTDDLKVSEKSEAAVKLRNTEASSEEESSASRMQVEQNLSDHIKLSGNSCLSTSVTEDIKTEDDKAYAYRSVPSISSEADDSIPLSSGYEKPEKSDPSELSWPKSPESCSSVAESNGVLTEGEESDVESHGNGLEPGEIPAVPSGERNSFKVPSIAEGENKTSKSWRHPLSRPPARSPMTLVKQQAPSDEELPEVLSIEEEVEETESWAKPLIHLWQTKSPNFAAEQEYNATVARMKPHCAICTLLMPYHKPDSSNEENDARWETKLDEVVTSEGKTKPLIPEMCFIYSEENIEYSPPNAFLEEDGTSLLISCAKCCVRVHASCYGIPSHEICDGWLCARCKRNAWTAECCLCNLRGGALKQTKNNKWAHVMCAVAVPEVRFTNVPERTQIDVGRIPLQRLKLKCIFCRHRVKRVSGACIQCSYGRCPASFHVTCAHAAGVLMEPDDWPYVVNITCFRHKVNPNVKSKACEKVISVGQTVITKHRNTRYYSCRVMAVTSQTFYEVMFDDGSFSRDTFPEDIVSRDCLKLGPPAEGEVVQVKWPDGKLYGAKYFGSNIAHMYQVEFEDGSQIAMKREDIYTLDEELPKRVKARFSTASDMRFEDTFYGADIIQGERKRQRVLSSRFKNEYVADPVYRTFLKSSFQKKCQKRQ

[23] = biological target: T2, Dual specificity protein phosphatase 3; experiment: VHR1 phosphatase inhibitors, primary screen, biochemical, absorbance, uHTS (AID 1654)
[24] = HEK-293T viability loss after treatment – luminescence, T-cell screen hits, cytotoxicity control for TCR NF-kB inhibitor project, dose response (AID 489026); format: functional, cell-based;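 further: cells exposed to compound about 14 hours before the viability readout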
[25] = cytotoxicity toward MDA-MB-231 breast cancer cells – cell-based, CellTiter-Glo luminescence, cherry-pick, cytotoxicity control for RAD54 inhibitor project, dose response (AID 651692); format: functional
[26] = biological target: Ras and Rab interactor 1/Tyrosine-protein kinase ABL1 (Homo sapiens, UniProt P00519+Q13671); format: functional;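 further: biochemical TR-FRET dose-response test measuring inhibition of binding between Rin1 and Abl proteins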
[27] = biological target: T3, Tyrosine-protein phosphatase non-receptor type 7 (Homo sapiens, UniProt P35236); format: functional
T3 sequence (P35236 whole entry): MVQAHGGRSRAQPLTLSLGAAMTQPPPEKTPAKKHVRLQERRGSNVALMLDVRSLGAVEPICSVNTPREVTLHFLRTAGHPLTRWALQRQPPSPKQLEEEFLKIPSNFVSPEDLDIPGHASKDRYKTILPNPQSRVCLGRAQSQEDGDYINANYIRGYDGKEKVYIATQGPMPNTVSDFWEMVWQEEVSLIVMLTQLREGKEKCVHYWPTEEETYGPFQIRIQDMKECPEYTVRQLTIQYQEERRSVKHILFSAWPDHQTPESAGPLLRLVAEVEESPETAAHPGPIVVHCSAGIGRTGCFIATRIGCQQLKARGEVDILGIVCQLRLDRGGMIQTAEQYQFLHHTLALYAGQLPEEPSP

[28] = biological target: T4, Replicative DNA helicase DnaB (Mycobacterium tuberculosis, UniProt P9WMR3); experiment: DnaB intein splicing inhibitors, dose response, biochemical, cell-free fluorescence (AID 449749); format: functional
T4 sequence (P9WMR3 whole entry): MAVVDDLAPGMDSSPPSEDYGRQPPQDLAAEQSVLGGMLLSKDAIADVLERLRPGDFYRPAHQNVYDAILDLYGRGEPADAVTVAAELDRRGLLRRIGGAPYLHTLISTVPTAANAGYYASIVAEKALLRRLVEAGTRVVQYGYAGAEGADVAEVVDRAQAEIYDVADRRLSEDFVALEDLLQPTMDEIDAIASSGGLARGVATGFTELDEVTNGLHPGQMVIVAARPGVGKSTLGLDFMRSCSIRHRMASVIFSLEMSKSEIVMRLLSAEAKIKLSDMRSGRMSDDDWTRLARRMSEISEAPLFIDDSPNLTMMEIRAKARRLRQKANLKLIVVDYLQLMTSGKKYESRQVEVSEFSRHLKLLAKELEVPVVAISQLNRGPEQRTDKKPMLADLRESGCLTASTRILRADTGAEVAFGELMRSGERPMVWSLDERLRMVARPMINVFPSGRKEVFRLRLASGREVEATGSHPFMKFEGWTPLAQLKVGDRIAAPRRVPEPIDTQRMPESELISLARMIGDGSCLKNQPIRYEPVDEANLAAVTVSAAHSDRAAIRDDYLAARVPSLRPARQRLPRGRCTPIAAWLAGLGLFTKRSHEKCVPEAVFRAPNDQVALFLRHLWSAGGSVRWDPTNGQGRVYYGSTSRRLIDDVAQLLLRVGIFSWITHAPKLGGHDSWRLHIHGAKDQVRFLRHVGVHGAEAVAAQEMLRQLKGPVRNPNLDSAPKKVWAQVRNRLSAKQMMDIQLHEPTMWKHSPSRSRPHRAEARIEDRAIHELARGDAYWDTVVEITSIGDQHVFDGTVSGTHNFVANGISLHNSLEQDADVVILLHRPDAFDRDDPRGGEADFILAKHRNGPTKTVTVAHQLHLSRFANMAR

[29] = biological target: DNA repair and recombination protein RAD54-like (Homo sapiens, UniProt Q92698); experiment: RAD54 Holliday junction migration blockers – biochemical, fluorescence, cherry-picked samples, dose series, confirmation (AID 651657); format: functional
DNA repair and recombination protein RAD54-like, sequence (Q92698 whole entry): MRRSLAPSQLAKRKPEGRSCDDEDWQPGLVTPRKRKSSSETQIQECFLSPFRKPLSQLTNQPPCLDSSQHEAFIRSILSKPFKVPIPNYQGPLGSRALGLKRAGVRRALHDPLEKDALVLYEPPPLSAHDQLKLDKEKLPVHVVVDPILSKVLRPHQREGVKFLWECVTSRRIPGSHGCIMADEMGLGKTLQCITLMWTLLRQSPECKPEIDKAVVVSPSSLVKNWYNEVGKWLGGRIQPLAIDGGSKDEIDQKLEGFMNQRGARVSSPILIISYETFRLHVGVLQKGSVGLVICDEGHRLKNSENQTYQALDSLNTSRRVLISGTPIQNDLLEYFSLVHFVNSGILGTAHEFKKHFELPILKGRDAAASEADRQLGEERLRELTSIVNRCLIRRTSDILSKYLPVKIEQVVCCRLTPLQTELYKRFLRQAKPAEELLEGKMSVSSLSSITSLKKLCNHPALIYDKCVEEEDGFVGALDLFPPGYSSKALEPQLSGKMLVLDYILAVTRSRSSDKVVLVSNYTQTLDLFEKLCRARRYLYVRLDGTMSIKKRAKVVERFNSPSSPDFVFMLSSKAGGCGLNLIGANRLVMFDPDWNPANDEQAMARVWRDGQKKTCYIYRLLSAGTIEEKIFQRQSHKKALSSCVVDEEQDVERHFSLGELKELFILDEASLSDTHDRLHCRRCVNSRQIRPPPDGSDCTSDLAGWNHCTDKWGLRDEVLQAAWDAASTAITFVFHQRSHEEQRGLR

[30] = reduced cellular PGC1a acetyl-lysine signal – cell-based, cherry-picked samples, dose response (AID 720514); format: functional;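 further: potency may reflect raised or lowered acetylation signal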
[31] = biological target: T5, Dual specificity protein phosphatase 6 (Rattus norvegicus, UniProt Q64346); experiment: inhibition of rat DUSP6 enzyme activity – biochemical, in vitro, primary screen (AID 425)
T5 sequence (Q64346 whole entry): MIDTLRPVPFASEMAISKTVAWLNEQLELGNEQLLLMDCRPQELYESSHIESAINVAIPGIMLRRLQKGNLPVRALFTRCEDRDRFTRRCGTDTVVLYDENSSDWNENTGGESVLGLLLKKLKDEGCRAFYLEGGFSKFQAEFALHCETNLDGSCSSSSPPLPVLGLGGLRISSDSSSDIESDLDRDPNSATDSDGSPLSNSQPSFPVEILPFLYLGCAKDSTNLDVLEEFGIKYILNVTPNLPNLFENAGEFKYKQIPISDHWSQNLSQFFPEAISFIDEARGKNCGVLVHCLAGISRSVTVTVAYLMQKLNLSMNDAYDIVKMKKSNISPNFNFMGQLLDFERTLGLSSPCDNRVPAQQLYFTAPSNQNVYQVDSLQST

[32] = microbe, parasite or virus in culture; format: functional; settings: Mycobacterium tuberculosis

Intestinal-type alkaline phosphatase (Homo sapiens, UniProt P09923), sequence (P09923 whole entry): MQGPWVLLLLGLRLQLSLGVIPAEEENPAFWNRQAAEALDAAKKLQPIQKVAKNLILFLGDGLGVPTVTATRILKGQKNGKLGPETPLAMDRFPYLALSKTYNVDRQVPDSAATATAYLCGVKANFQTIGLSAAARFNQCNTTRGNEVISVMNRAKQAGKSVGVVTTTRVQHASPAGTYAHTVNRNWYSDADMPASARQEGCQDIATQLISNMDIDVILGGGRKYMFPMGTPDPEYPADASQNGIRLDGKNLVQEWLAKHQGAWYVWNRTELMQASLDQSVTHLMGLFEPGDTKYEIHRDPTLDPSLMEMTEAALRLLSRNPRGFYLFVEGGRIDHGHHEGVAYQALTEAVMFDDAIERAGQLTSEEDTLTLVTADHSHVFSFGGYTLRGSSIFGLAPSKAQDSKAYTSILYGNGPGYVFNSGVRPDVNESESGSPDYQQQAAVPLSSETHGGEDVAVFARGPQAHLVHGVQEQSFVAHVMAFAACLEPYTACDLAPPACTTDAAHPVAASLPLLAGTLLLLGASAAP

COC(=O)c1ccc(NS(=O)(=O)c2ccc3[nH]c(=O)oc3c2)cc1
inactive: IC50 [1] > 100 µM | IC50 [2] > 100 µM
active: IC50 [3] 2.6 µM

Cc1ccccc1-n1c(=O)c(C#N)cc2c(=O)n3ccccc3nc21
> 38 µM (not active): EC50 [6]
inactive: EC50 [8] > 160 µM
active: EC50 [4] 7.88 µM | EC50 [5] 7.45 µM | EC50 [7] 2.58 µM

COC(=O)CC1=NN(c2nc3ccccc3s2)C(=O)/C1=C(/C)Nc1ccc(OC)cc1
inactive: IC50 [11] > 20 µM
active: IC50 [9] < 39.1 nM and 4.12 µM | IC50 [10] 260 nM and 2.38 µM

Cn1ncnc2c(=O)n(C)c(=O)nc1-2
active: AC50 [12] 2.54 µM | EC50 [13] 0.64 µM | CC50 [14] 10.3 µM | EC50 [16] 0.47 µM | EC50 [17] 0.85 µM | IC50 [18] 1.36 µM | AC50 [19] 0.627 µM | EC50 [20] 0.492 µM | AC50 [22] 0.541 µM | IC50 [24] 2 µM | AC50 [25] 1.8 µM | IC50 [26] 0.323 µM | IC50 [27] < 1.24 µM | AC50 [28] 0.057 µM | AC50 [29] 1.1 µM | AC50 [30] 0.463 µM | IC50 [31] 2.32 µM | CC50 [32] 7.98 µM
inactive: IC50 [23] < 0.98 µM
> 39.8 µM (not active): IC50 [15] | IC50 [21]

— ChEMBL document CHEMBL1201862, “PubChem BioAssay data set” (2004)
